Data published in patent US4559360A, “Cysteine derivatives, a process for their preparation, and pharmaceutical compositions which contain them” (Magis Farmaceutici S.R.L., priority 1984, dated 1985).

Tests used:
Type in all cases: in vivo
[1] = Acute toxicity in the mouse (LD50, Litchfield and Wilcoxon); conditions: in vivo, 7 days observation
Method: (§1) The acute toxicity of the proucts was studied on male and female adult mice of Swiss stock, and on male and female adult rats of Sprague-Dawley stock, by oral and subcutaneous administration. For each method of administration, the tested doses were administered in geometrical progression to 10 animals (5 males and 5 females). After treatment, the animals were kept under observation for 7 days. On termination of this period, the LD50 and the relative confidence limits were calculated by the Litchfield and Wilcoxon method (Pharmacol. Exp. Ther. 96-99, 1949).

[2] = Acute toxicity in the rat (LD50, Litchfield and Wilcoxon); conditions: in vivo, 7 days observation
Method: as §1

mice of Swiss stock = experiment: Acute toxicity in the mouse (LD50, Litchfield and Wilcoxon); conditions: 7 days observation
Method: as §1

[3] = tested on: rats of Sprague-Dawley stock; experiment: Acute toxicity in the rat (LD50, Litchfield and Wilcoxon); conditions: 7 days observation
Method: as §1

Compound: CC(=O)Oc1ccccc1C(=O)N[C@@H](CSCC(=O)O)C(=O)O [MSF 01, S-(carboxymethyl)-N-(2-acetoxybenzoyl)-L-cysteine]
- LD50 at 168 h ([1]; oral): 4800 mg/kg
- LD50 at 168 h ([1]; sc, subcutaneous): 4500 mg/kg
- LD50 at 168 h ([2]; oral): 4800 mg/kg
- LD50 at 168 h ([2]; sc, subcutaneous): 4500 mg/kg

Compound: CC(=O)Oc1ccccc1C(=O)OC(=O)CSC[C@H](N)C(=O)OC(=O)c1ccccc1OC(C)=O [MSF 03, S-carboxymethylcysteine bis-acetylsalicylanhydride]
- LD50 at 168 h ([1]; oral): 4300 mg/kg
- LD50 at 168 h ([1]; sc, subcutaneous): 4100 mg/kg
- LD50 at 168 h ([2]; oral): 4500 mg/kg
- LD50 at 168 h ([2]; sc, subcutaneous): 4200 mg/kg

Compound: S-(carboxymethyl)-L-cysteine acetylsalicylanhydride [MSF 02]
- LD50 (mice of Swiss stock; oral): 4600 mg/kg
- LD50 (mice of Swiss stock; subcutaneous): 4400 mg/kg
- LD50 ([3]; oral): 4800 mg/kg
- LD50 ([3]; subcutaneous): 4500 mg/kg
